Experimental findings from PubChem BioAssay (NCI) are described below.

What all share (experiment): NCI tumour cell line growth inhibition, 48 h
In assay [1] the test system is A549 NSCLC.
In assay [2] the test system is CAKI-1 renal.
Assay [3] concerns HT29 colon.
The subject of assay [4] is IGROV1 ovarian.
Assay [5] relates to MALME-3M melanoma.
For assay [6], the system named is MDA-MB-435.
For assay [7], the system named is OVCAR-3 ovarian.
Assay [8] deals with SK-MEL-2 melanoma.
In assay [9] the test system is SN12C renal.
In assay [10] the test system is U251 CNS.
Assay [11] deals with BT-549 breast.

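A five-concentration, 48-hour dose response in 96-well plates underlies each endpoint, interpolated linearly between surrounding concentrations. TGI: total growth inhibition.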 Square brackets hold non-standard residues; d marks the D form. Peptide text beside a SMILES is read from it. Phe(4-NO2) = N[CH](Cc1ccc([N+](=O)[O-])cc1)C(=O)O

For the compound `CSS(C)(=O)=O`, the TGI in assay [1] was more than 100 µM; in [2] it was 43.2 µM; in assay [3], more than 100 µM; in [4], 45.2 µM; in [5], 48.4 µM; in assay [6], 44.3 µM. The TGI in assay [7] is 41.6 µM; in assay [8] it was 60.2 µM; in assay [9], 45.3 µM; in [10], more than 100 µM.
In the case of `N[C@@H](Cc1ccc2oc3cc(=O)c4ccccc4c-3nc2c1)C(=O)O`, the TGI is more than 100 µM in assay [1]; more than 100 µM in assay [2]; 96.8 µM in assay [3]; more than 100 µM in [4]; 11.2 µM in assay [5]; 31.7 µM in [6]. The TGI in assay [7], in assay [9] and in assay [10] was more than 100 µM in each case.
As to `ClCCc1ccccc1CC1=NCCc2ccccc21`, the TGI in assay [1] was more than 100 µM; in assay [11] it was 97.9 µM; in assay [2], 92.4 µM; in assay [3] it was 46.3 µM; in assay [4], more than 100 µM; in [6] it was more than 100 µM. Besides, the TGI is more than 100 µM in [7], 39.1 µM in [8], more than 100 µM in assay [9] and more than 100 µM in assay [10].
As to `COC(=O)CCC(NC(=O)C(CCC(=O)OC)NC(=O)C(CCC(=O)OC)NC(=O)C(CCC(=O)OC)NC(=O)C(CCC(=O)OC)NC(=O)C(Cc1ccc([N+](=O)[O-])cc1)NC(=O)C(CCC(=O)OC)NC(=O)C(CCC(=O)OC)NC(=O)C(CCC(=O)OC)NC(=O)C(CCC(=O)OC)NC(=O)C(CCC(=O)OC)NC(C)=O)C(N)=O` (stereo not drawn) (Ac-E(OMe)E(OMe)E(OMe)E(OMe)E(OMe)[Phe(4-NO2)]E(OMe)E(OMe)E(OMe)E(OMe)E(OMe)-NH2; configuration not given here), the TGI in assay [1], in assay [2], in assay [3], in assay [4], in assay [5] and in assay [6] was more than 100 µM throughout. For the same compound, the TGI in [8], in assay [9] and in assay [10] was more than 100 µM each time.
On to `C(/C=C/Nc1ccc(-c2ccccc2)cc1)=Nc1ccc(-c2ccccc2)cc1`, for which the TGI in [1], in [11], in assay [2], in assay [3], in [4] and in assay [6] was more than 100 µM throughout. Also, the TGI in [7], in assay [8], in assay [9] and in [10] was more than 100 µM each time.
For the compound `CC(C)(C)C(=O)CC(=O)C(F)(F)C(F)(F)C(F)(F)F.[Ag]`, the TGI in assay [1] was more than 100 µM; in assay [2] it was 27.8 µM; in [3], 36 µM; in assay [4], 26.5 µM; in assay [5], 45.4 µM; in assay [6], 33.5 µM. Moreover, the TGI in assay [7] turned out to be 27.7 µM; in [8], 33.6 µM; in assay [9], 27.6 µM; in [10] it was 52.8 µM.
As to `COc1ccc(NC(=O)CC(=O)N2N=C(C)C(N=Nc3ccc(C(=O)O)cc3)C2=O)cc1` (stereo not drawn), the TGI in [1], in assay [2], in assay [3], in assay [4], in assay [5] and in assay [6] was more than 100 µM in each case. For the same compound, the TGI in assay [7], in assay [8], in assay [9] and in assay [10] was more than 100 µM in each case.
Take `COc1ccc(NC(=S)Nc2c(C)n(C)n(-c3ccccc3)c2=O)cc1`: the TGI in assay [1], in assay [11], in assay [2], in assay [3], in assay [4] and in assay [5] was more than 100 µM in each case. Further, the TGI in [6], in assay [7] and in assay [10] was more than 100 µM in each case.
`Cc1ccc(NC(=S)N=Nc2c(O)[nH]c3ccccc23)cc1`: the TGI in assay [1], in assay [2], in assay [3], in [4], in assay [5] and in assay [6] was more than 100 µM throughout. Besides, the TGI in assay [7], in assay [8], in assay [9] and in [10] was more than 100 µM each time.
In the case of `N#Cc1c2ccc([N+](=O)[O-])cc2c(=O)n2c1sc1ccccc12`, the TGI is 28.5 µM in assay [1]; more than 100 µM in assay [11]; more than 100 µM in assay [2]; more than 100 µM in [3]; more than 100 µM in assay [6]; 53.6 µM in [8]. Besides, the figures for the TGI in [9] and in assay [10] were more than 100 µM and 95.4 µM, respectively.
For the compound `CCSc1nc(C)nc2c1sc1nc3ccccc3n12`, the TGI in [1], in assay [11], in assay [2], in assay [3], in assay [4] and in [6] was more than 100 µM throughout. Besides, the TGI in [7], in assay [8], in [9] and in assay [10] was more than 100 µM each time.
For the compound `CN(C)c1c(C2CC(O)C(CO)O2)c(=O)c1=O` (stereo not drawn), the TGI in [1], in [11], in assay [3], in assay [4], in assay [6] and in assay [7] was more than 100 µM in each case. For the same compound, the TGI in assay [8], in assay [9] and in assay [10] was more than 100 µM throughout.
Regarding `C[C@H](CO)C1=CC(C#C[Si](C)(C)C)N(C(=O)Oc2ccccc2)c2ccccc21` (stereo partly drawn), the TGI was found to be 26.8 µM in assay [1]; 28.7 µM in [2]; 20.5 µM in [3]; 29.9 µM in [4]; 7.25 µM in [6]; 13.5 µM in assay [7]. The TGI amounted to 30.2 µM in assay [8], 25.5 µM in assay [9] and 28 µM in [10].
